Laboratory results as given in PubChem BioAssay AID504330 (The Scripps Research Institute Molecular Screening Center, 2011).
Active and inactive are the calls of the source.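 How the source made its calls: active means EC50 at or below 10 µM; inactive means the rest.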

Target: Caspase-7 (Homo sapiens) (UniProt P55210)
Experiment: procaspase-7 activators, dose response, dual procaspase-3/-7 activator project, biochemical, absorbance, human (AID 504330)
Details: recombinant procaspase-7 D3A, Ac-DEVD-pNA absorbance 405 nm

Chain of Caspase-7 (Homo sapiens) (P55210 whole entry D23A/D198A/D206A): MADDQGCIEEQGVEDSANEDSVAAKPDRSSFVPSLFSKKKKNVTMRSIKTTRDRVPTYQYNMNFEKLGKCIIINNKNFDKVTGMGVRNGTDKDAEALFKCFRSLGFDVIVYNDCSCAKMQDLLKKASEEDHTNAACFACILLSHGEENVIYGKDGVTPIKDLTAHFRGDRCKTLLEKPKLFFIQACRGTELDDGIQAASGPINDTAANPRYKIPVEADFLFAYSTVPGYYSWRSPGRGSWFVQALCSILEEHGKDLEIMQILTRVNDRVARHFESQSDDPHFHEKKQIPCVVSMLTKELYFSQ

## CCOc1ccc(N=CC2=C(O)CC(c3ccco3)CC2=O)cc1 (stereo unspecified)
  EC50: > 85.3 µM (inactive)
